Data on eight compounds can be found in PubChem BioAssay (NCI).

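1) Cells in 96-well plates. 2) Compound, 48 h, 5 concentrations. 3) Linear interpolation between surrounding doses. 4) Unreached endpoint = highest concentration. Definition used: TGI = concentration required for complete inhibition of growth.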

Holding throughout (test): growth of human tumour cells (NCI), 48 h
In assay [1] the test system is NCI-H23 lung.
Assay [2] deals with HT29 colon.
For assay [3], the system named is KM12 colon.
Assay [4] relates to A549 NSCLC.
The test system of assay [5] is A498 renal.
Assay [6] concerns NCI-H460 lung.
In assay [7] the test system is OVCAR-5 ovarian.
Assay [8] has as its system MDA-MB-231 breast.
For assay [9], the system named is UACC-62 melanoma.
Assay [10] concerns COLO 205 colon.
Assay [11] concerns RPMI-8226 leukemia.

In the case of `C[C@]12C[C@@H](OC(=O)[C@]1(C)O)[C@@H]([C@]1(O)CC[C@H]3[C@@H]4C[C@H]5O[C@]56C[C@H]5O[C@H]5C(=O)[C@]6(C)[C@H]4CC[C@@]31C)C2`, the TGI in assay [1], in assay [2], in assay [3], in [4], in assay [5] and in assay [6] was > 50 µM each time. Also, the TGI in assay [7], in assay [8], in assay [9], in assay [10] and in assay [11] was > 50 µM each time.

`CC1(C)OC(=S)N(c2ccccc2)C12C=Cc1ccccc1O2` (stereo not drawn): the TGI in assay [1], in assay [2], in assay [3], in assay [4], in assay [5] and in assay [6] was > 100 µM each time. The TGI in assay [7], in assay [8], in assay [9], in assay [10] and in assay [11] was > 100 µM each time.

In the case of `COC(=O)[C@]1(NC(=O)c2ccccc2)C[C@H]1C=O`, the TGI is > 100 µM in assay [1]; > 100 µM in assay [2]; > 100 µM in assay [3]; > 100 µM in assay [4]; > 100 µM in assay [5]; 77 µM in assay [6]. Further, the TGI in assay [7], in [8], in assay [9], in assay [10] and in [11] was > 100 µM throughout.

For `CC(=O)OCC(=O)O[C@@H]1[C@H]2[C@@H](OC(=O)c3ccccc3)[C@@H](C)C[C@]2(O)[C@H](OC(C)=O)[C@@]2(C)C(OC(C)=O)[C@]1(OC(C)=O)C[C@H]1C(=O)C(C)(C)C[C@@H]12` (stereo partly drawn), the TGI in assay [1], in assay [2], in assay [3], in [4], in assay [5] and in assay [6] was > 50 µM each time. The TGI in assay [7], in assay [8], in assay [9], in [10] and in assay [11] was > 50 µM each time.

`Nc1ccc2c(c1)nc1n2C(c2c(F)cccc2F)SC1` (stereo not drawn): the TGI in assay [1], in [2], in [3], in [4], in assay [5] and in assay [6] was > 100 µM each time. Moreover, the TGI in [7], in [8], in [9], in [10] and in [11] was > 100 µM each time.

Consider `CCOC(=O)C(=CNc1ccc(NC2=NCC(C)S2)cc1)C(=O)OCC` (stereo not drawn), for which the TGI in assay [1] is > 100 µM; in assay [2], > 84.2 µM; in [3] it was > 87.9 µM; in assay [4] it was > 100 µM; in [5], > 100 µM; in assay [6], > 100 µM. Also, the TGI is > 100 µM in assay [7]; > 100 µM in [8]; 26.8 µM in assay [9]; > 100 µM in assay [10]; 32.3 µM in [11].

For `CC(=O)NC1C(OCc2ccccc2)OC(CO)C(O)C1OC(C)C(=O)NC(C)C(=O)NC(CCC(=O)NCCCCNc1c2ccccc2nc2cccc([N+](=O)[O-])c12)C(N)=O` (stereo not drawn), the TGI in assay [1] came out at 0.221 µM; in [2], 0.0362 µM; in assay [3], 0.692 µM; in [4], 0.838 µM; in assay [5] it was 0.297 µM; in assay [6], 0.0363 µM. Besides, the TGI in assay [7] is 1.65 µM; in assay [8], 0.118 µM; in [9], 0.115 µM; in assay [10], 0.0506 µM; in [11], 0.0629 µM.

`O=C1C(Cl)C2(CC(/C=C/c3ccccc3)=NN2c2cccc(S(=O)(=O)O)c2)N1c1nc2ccccc2s1` (stereo not drawn): the TGI turned out to be 28.1 µM in assay [1]; 37.2 µM in [2]; 30.9 µM in [3]; 30.2 µM in assay [4]; 38.8 µM in assay [5]; 46.6 µM in assay [6]. In addition, the TGI in [7] worked out at 35.5 µM; in assay [8], 29.4 µM; in [9], 29.8 µM; in assay [10], 37.8 µM; in assay [11] it was 33.8 µM.
